1 substance from patent US8603467B2 (priority 2007, dated 2013) can be followed below.

In assay [1] the test system is 8G9/HRP (binding to virus strain Ck/HK/Yu22/02).
Assay [2] concerns 8G9 ascites (HI activity for Ck/HKYU22/02 virus). The assay is classed as biochemical.

For H T P C D T R D C V L R [G2], in assay [1], the “Competition with avian influenza virus for 8G9/HRP” value is listed as “had competition activity”. The HI blocking effect result in assay [2] is listed as “could clearly block”.
